According to ChEMBL document CHEMBL1201862, “PubChem BioAssay data set” (2004):
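Dose response: 5 concentrations. Exposure: 48 h. Format: 96-well plates. Endpoint: linear interpolation; highest concentration if not reached. The concentration for 50% growth inhibition is given as GI50.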 Activity calls are given as the source filed them. No stated cut-off is given here; in the data, active = GI50 up to about 1.1 µM and inactive = higher.

Legend:
Assay in all cases: inhibition of tumour cell growth, NCI panel, 48 h
EKVX = tested on: EKVX
SK-MEL-2 = tested on: SK-MEL-2
Hs-578T = tested on: Hs-578T
MOLT-4 = tested on: MOLT-4
K562 = tested on: K562
MDA-N = tested on: MDA-N
T47D = tested on: T47D
OVCAR-8 = tested on: OVCAR-8
RXF 393 = tested on: RXF 393
U-251 = tested on: U-251
MDA-MB-435 = tested on: MDA-MB-435
SW-620 = tested on: SW-620
UACC-257 = tested on: UACC-257
HCT-15 = tested on: HCT-15
NCI-H23 = tested on: NCI-H23
A549 = tested on: A549
OVCAR-5 = tested on: OVCAR-5
SK-MEL-28 = tested on: SK-MEL-28
ACHN = tested on: ACHN
SK-OV-3 = tested on: SK-OV-3

Compound | GI50 (EKVX) | GI50 (SK-MEL-2) | GI50 (Hs-578T) | GI50 (MOLT-4) | GI50 (K562) | GI50 (MDA-N) | GI50 (T47D) | GI50 (OVCAR-8) | GI50 (RXF 393) | GI50 (U-251) | GI50 (MDA-MB-435) | GI50 (SW-620) | GI50 (UACC-257) | GI50 (HCT-15) [µM] | GI50 (NCI-H23) | GI50 (A549) | GI50 (OVCAR-5) | GI50 (SK-MEL-28) | GI50 (ACHN) | GI50 (SK-OV-3)
c1cncc(CSc2ncnc3[nH]cnc23)c1 | > 100 µM (inactive) | > 100 µM (inactive) | > 100 µM (inactive) | > 100 µM (inactive) | > 100 µM (inactive) | > 100 µM (inactive) | > 100 µM (inactive) | > 100 µM (inactive) | > 100 µM (inactive) | > 100 µM (inactive) | > 100 µM (inactive) | > 100 µM (inactive) | > 100 µM (inactive) | > 100 | > 100 µM (inactive) | > 100 µM (inactive) | > 100 µM (inactive) | > 100 µM (inactive) | > 100 µM (inactive) | > 100 µM (inactive)
O=C1CCCCCC1CC(Sc1ccccc1)Sc1ccccc1 (stereo not given) | > 100 µM (inactive) | > 100 µM (inactive) | 96.2 µM (inactive) | 8.69 µM (inactive) | 46.7 µM (inactive) | > 100 µM (inactive) | 14.4 µM (inactive) | > 100 µM (inactive) | > 100 µM (inactive) | > 100 µM (inactive) | > 100 µM (inactive) | 98.2 µM (inactive) | 59.8 µM (inactive) | > 100 | 75.3 µM (inactive) | 39.8 µM (inactive) | > 100 µM (inactive) | > 100 µM (inactive) | > 100 µM (inactive) | > 100 µM (inactive)
CN1C(c2ccccc2)=CC(=O)C(O)=C(c2ccccc2)S1(=O)=O | > 100 µM (inactive) | > 100 µM (inactive) | > 100 µM (inactive) | > 100 µM (inactive) | > 100 µM (inactive) | > 100 µM (inactive) | > 100 µM (inactive) | > 100 µM (inactive) | > 100 µM (inactive) | > 100 µM (inactive) | > 100 µM (inactive) | > 100 µM (inactive) | > 100 µM (inactive) | > 100 | > 100 µM (inactive) | > 100 µM (inactive) | > 100 µM (inactive) | > 100 µM (inactive) | > 100 µM (inactive) | > 100 µM (inactive)
COC(=O)/C=C(\S/C(=N\n1cc(C(=O)OC)c(C(=O)OC)c1-c1ccc(C)cc1)c1ccc(C)cc1)C(=O)OC | 15.7 µM (inactive) | 6.12 µM (inactive) | 18.4 µM (inactive) | 4.26 µM (inactive) | 1.43 µM (inactive) | 5.79 µM (inactive) | 1.03 µM (active) | 12.9 µM (inactive) | 5.47 µM (inactive) | 5.66 µM (inactive) | 5.94 µM (inactive) | 1.77 µM (inactive) | 4.72 µM (inactive) | 2.28 | 5.62 µM (inactive) | 18.7 µM (inactive) | 6.7 µM (inactive) | 5.78 µM (inactive) | 2.34 µM (inactive) | 32.3 µM (inactive)
O=C(O)C1CCCN1Cc1cc2ccccc2c2ccccc12 (stereo not given) | > 100 µM (inactive) | > 100 µM (inactive) | > 100 µM (inactive) | > 100 µM (inactive) | 40.1 µM (inactive) | > 100 µM (inactive) | > 100 µM (inactive) | > 100 µM (inactive) | > 100 µM (inactive) | > 100 µM (inactive) | > 100 µM (inactive) | > 100 µM (inactive) | > 100 µM (inactive) | > 100 | > 100 µM (inactive) | > 100 µM (inactive) | > 100 µM (inactive) | > 100 µM (inactive) | > 100 µM (inactive) | > 100 µM (inactive)
